US7998978B2 (Pfizer Inc., priority 2006, dated 2011)

These compounds were tested against T1, JNK1α1 (Homo sapiens, UniProt P45983) (assay: Coupled spectrophotometric (PK/LDH) JNK1α1 assay: % inhibition and Ki determination). Settings: JNK-1.
T1 construct: catalytic domain containing amino acids 1-364 and N-terminal hexahistidine tag; hexahistidine (His6) (N); made in house; host or cells: E. coli BL21 (DE3)
Assay type: biochemical
Procedure, shortened: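 Initial rates were taken from the absorbance decrease at 340 nm at 30° C. Ki was fitted with a tight-binding model over 11 concentrations (top 100 μM); single-point inhibition was tested at 1 or 10 μM.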

T1 sequence (P45983 1-364): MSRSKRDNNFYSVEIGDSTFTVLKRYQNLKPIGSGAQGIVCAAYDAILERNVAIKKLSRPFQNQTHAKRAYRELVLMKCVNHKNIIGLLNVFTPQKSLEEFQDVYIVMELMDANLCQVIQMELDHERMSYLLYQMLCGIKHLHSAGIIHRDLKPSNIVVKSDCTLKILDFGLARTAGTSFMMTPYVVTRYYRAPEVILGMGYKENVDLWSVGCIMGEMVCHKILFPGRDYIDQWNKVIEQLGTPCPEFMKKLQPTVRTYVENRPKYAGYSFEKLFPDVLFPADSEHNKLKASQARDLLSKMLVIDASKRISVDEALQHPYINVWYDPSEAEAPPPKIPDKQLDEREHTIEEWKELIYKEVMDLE

Ki	Compound
143 nM	CC(=O)N1CCC(c2cccc3cnc(N[C@H]4CC[C@H](O)CC4)nc23)C1 (stereo partly drawn) [Example 197]
98 nM	CNCCOc1ccc(-c2cccc3cnc(N[C@H]4CC[C@H](O)CC4)nc23)cc1 [Example 199, trans-4-[(8-{4-[2-(methylamino)ethoxy]phenyl}quinazolin-2-yl)amino]cyclohexanol]
186 nM	Cc1ccccc1-c1cccc2cnc(N[C@H]3CC[C@H](O)CC3)nc12 [Example 200, trans-4-{[8-(2-methylphenyl)quinazolin-2-yl]amino} cyclohexanol]
70 nM	CN(C)CCOc1ccc(-c2cccc3cnc(N[C@H]4CC[C@H](O)CC4)nc23)cc1 [Example 201, trans-4-[(8-{4-[2-(dimethylamino)ethoxy]phenyl}quinazolin-2-yl)amino]cyclohexanol]
77 nM	NCCOc1ccc(-c2cccc3cnc(N[C@H]4CC[C@H](O)CC4)nc23)cc1 [Example 202, trans-4-({8-[4-(2-aminoethoxy)phenyl]quinazolin-2-yl}amino) cyclohexanol]
815 nM	Cc1cc(OCCN(C)C)ccc1-c1cccc2cnc(N[C@H]3CC[C@H](O)CC3)nc12 [Example 203, trans-4-[(8-{4-[2-(dimethylamino)ethoxy]-2-methylphenyl}quinazolin-2-yl)amino] cyclohexanol]
303 nM	COc1ccccc1-c1cccc2cnc(N[C@H]3CC[C@H](O)CC3)nc12 [Example 204, trans-4-{(8-(2-methoxyphenyl)quinazolin-2-yl]amino} cyclohexanol]
29 nM	O[C@H]1CC[C@H](Nc2ncc3cccc(-c4ccccc4)c3n2)CC1 [Example 205, trans-4-[(8-phenylquinazolin-2-yl)amino] cyclohexanol]
495 nM	CNC(=O)COc1c(C)ccc2cnc(N[C@H]3CC[C@H](O)CC3)nc12 [Example 206, 2-({2-[(trans-4-hydroxycyclohexyl)amino]-7-methylquinazolin-8-yl}oxy) N-methylacetamide]
1060 nM	Cc1ccc2cnc(N[C@H]3CC[C@H](O)CC3)nc2c1OCC(=O)N(C)C [Example 207, 2-({2-[(trans-4-hydroxycyclohexyl)amino]-7-methylquinazolin-8-yl}oxy)-N,N-dimethylacetamide]
1130 nM	Cc1ccc2cnc(N[C@H]3CC[C@H](O)CC3)nc2c1OCC(=O)NC(C)C [Example 208, 2-({2-[(trans-4-hydroxycyclohexyl)amino]-7-methylquinazolin-8-yl}oxy)-N-isopropylacetamide]

Continued, compound first:

Compound	Ki
N[C@H]1CC[C@H](Nc2ncc3cccc(OC4CCOCC4)c3n2)CC1 [Example 178, trans-N-[8-(tetrahydro-2H-pyran-4-yloxy)quinazolin-2-yl]cyclohexane-1,4-diamine]	744 nM
CC(=O)N[C@H]1CC[C@H](Nc2ncc3cccc(OC4CCOCC4)c3n2)CC1 [Example 179, N-(trans-4-{[8-(tetrahydro-2H-pyran-4-yloxy)quinazolin-2-yl]amino}cyclohexyl)acetamide]	665 nM
CCC(=O)N[C@H]1CC[C@H](Nc2ncc3cccc(OC4CCOCC4)c3n2)CC1 [Example 180, N-(trans-4-{[8-(tetrahydro-2H-pyran-4-yloxy)quinazolin-2-yl]amino}cyclohexyl)propanamide]	570 nM
CC(C)C(=O)N[C@H]1CC[C@H](Nc2ncc3cccc(OC4CCOCC4)c3n2)CC1 [Example 181, 2-methyl-N-(trans-4-{[8-(tetrahydro-2H-pyran-4-yloxy)quinazolin-2-yl]amino}cyclohexyl)propanamide]	780 nM
CS(=O)(=O)N[C@H]1CC[C@H](Nc2ncc3cccc(OC4CCOCC4)c3n2)CC1 [Example 182, N-(trans-4-{[8-(tetrahydro-2H-pyran-4-yloxy)quinazolin-2-yl]amino}cyclohexyl)methanesulfonamide]	146 nM
CCS(=O)(=O)N[C@H]1CC[C@H](Nc2ncc3cccc(OC4CCOCC4)c3n2)CC1 [Example 183, N-(trans-4-{[8-(tetrahydro-2H-pyran-4-yloxy)quinazolin-2-yl]amino}cyclohexyl)ethanesulfonamide]	220 nM
CC(=O)N[C@H]1CC[C@H](Nc2ncc3cccc(OC4CCOC4)c3n2)CC1 (stereo partly drawn) [Example 184, N-(trans-4-{[8-(tetrahydrofuran-3-yloxy)quinazolin-2-yl]amino}cyclohexyl)acetamide]	674 nM
CCC(=O)N[C@H]1CC[C@H](Nc2ncc3cccc(OC4CCOC4)c3n2)CC1 (stereo partly drawn) [Example 185, N-(trans-4-{[8-(tetrahydrofuran-3-yloxy)quinazolin-2-yl]amino}cyclohexyl)propanamide]	885 nM
CC(C)C(=O)N[C@H]1CC[C@H](Nc2ncc3cccc(OC4CCOC4)c3n2)CC1 (stereo partly drawn) [Example 186, 2-methyl-N-(trans-4-{[8-(tetrahydrofuran-3-yloxy)quinazolin-2-yl]amino)cyclohexyl)propanamide]	607 nM
CS(=O)(=O)N[C@H]1CC[C@H](Nc2ncc3cccc(OC4CCOC4)c3n2)CC1 (stereo partly drawn) [Example 187, N-(trans-4-{[8-(tetrahydrofuran-3-yloxy)quinazolin-2-yl]amino}cyclohexyl)methanesulfonamide]	414 nM
CCS(=O)(=O)N[C@H]1CC[C@H](Nc2ncc3cccc(OC4CCOC4)c3n2)CC1 (stereo partly drawn) [Example 188, N-(trans-4-{[8-(tetrahydrofuran-3-yloxy)quinazolin-2-yl]amino}cyclohexyl)ethanesulfonamide]	374 nM
FCCN[C@H]1CC[C@H](Nc2ncc3cccc(OC4CCOCC4)c3n2)CC1 [Example 189, trans-N-(2-fluoroethyl)-N′-[8-(tetrahydro-2H-pyran-4-yloxy)quinazolin-2-yl]cyclohexane-1,4-diamine]	877 nM
CCN[C@H]1CC[C@H](Nc2ncc3cccc(OC4CCOCC4)c3n2)CC1 [Example 190, trans-N-ethyl-N′-[8-(tetrahydro-2H-pyran-4-yloxy)quinazolin-2-yl]cyclohexane-1,4-diamine]	342 nM
CC(C)N[C@H]1CC[C@H](Nc2ncc3cccc(OC4CCOCC4)c3n2)CC1 [Example 191, trans-N-isopropyl-N′-[8-(tetrahydro-2H-pyran-4-yloxy)quinazolin-2-yl]cyclohexane-1,4-diamine]	698 nM
CCN[C@H]1CC[C@H](Nc2ncc3cccc(OC4CCOC4)c3n2)CC1 (stereo partly drawn) [Example 192, trans-N-ethyl-N′-[8-(tetrahydrofuran-3-yloxy)quinazolin-2-yl]cyclohexane-1,4-diamine]	1130 nM
CC(C)N[C@H]1CC[C@H](Nc2ncc3cccc(OC4CCOC4)c3n2)CC1 (stereo partly drawn) [Example 193, trans-N-isopropyl-N′-[8-(tetrahydrofuran-3-yloxy)quinazolin-2-yl]cyclohexane-1,4-diamine]	1410 nM
FCCN[C@H]1CC[C@H](Nc2ncc3cccc(OC4CCOC4)c3n2)CC1 (stereo partly drawn) [Example 194, trans-N-(2-fluoroethyl)-N′-[8-(tetrahydrofuran-3-yloxy)quinazolin-2-yl]cyclohexane-1,4-diamine]	1460 nM
CS(=O)(=O)N1CCC(c2cccc3cnc(N[C@H]4CC[C@H](O)CC4)nc23)C1 (stereo partly drawn) [Example 195, trans-4-({8-[1-(methylsulfonyl)pyrrolidin-3-yl]quinazolin-2-yl}amino)cyclohexanol]	81 nM
COC(=O)N1CCC(c2cccc3cnc(N[C@H]4CC[C@H](O)CC4)nc23)C1 (stereo partly drawn) [Example 196, methyl 3-{2-[(trans-4-hydroxycyclohexyl)amino]quinazolin-8-yl}pyrrolidine-1-carboxylate]	56 nM
